Earlier results in US12220388B2, “Uses of curcuminoid compositions” (Givaudan France Naturals SAS, priority 2018, dated 2025).

System: Caco-2 cells

COc1cc(/C=C/C(=O)CC(=O)/C=C/c2ccc(O)c(OC)c2)ccc1O [curcumin]
predicted absorption in humans (from correlation of Caco-2 Papp with human absorption in vivo): 0-20%
Papp (apparent permeability coefficient) (in vitro human intestinal cells model): 0.1 ×10⁻⁶ cm/s
